The values that follow come from US10138232B2, “Naphthyridinedione derivatives” (NOVARTIS AG, priority 2014, dated 2018).

In the test the test system is CFTR-Y122X (GFP-CFTR-Y122X-Renilla construct) in Hek293 cell lines. In words: CFTR-Y122X assay (dual reporter readthrough, Renilla luminescence). In kind it is cell-based. The following applies: Homo sapiens, compounds incubated 24 h, tested up to 100 μM; for AC50: nonsense mutation suppression in the CFTR-Y122X assay; for Emax: nonsense mutation suppression, 100% activity = 14 mM paromomycin, read-out: Amax. The text has this: In particular, compounds of formula (I), (I′), (Ia), (Ia′) or (Ib) I act as nonsense mutation suppressors on frequent PTCs, e.g. on Y122X in the mRNA of the cystic fibrosis conductance regulator protein (CFTR). This can be determined in vitro, for example, using cell lines expressing GFP-CFTR-Y122X-Renilla constructs as described herein.
Activity of compounds of the present invention was examined in recombinant, dual reporter isogenic Hek293 cell lines (“CFTR-Y122X assay”). The engineered reporter constructs contained the 18 bp sequence strech corresponding to a common Y122X PTC mutation in CFTR class I mutant patients (see Sermet-Gaudelus, BMC Medicine, 2007, 5(5)). Instead of a tyrosine (Y) in position 122 of the CFTR protein a TGA stop codon interrupts the open reading frame (Y122X) of the corresponding mRNA. This TGA stop codon triplet (followed by the pyrimidine base cytosine) is permissive to aminoglycoside mediated translational readthrough which served as positive control for high throughput screening. A corresponding TAA stop codon variant and a wildtype non mutated construct was used for confirmation and counter screening. The CFTR sequence was sandwiched between an eGFP reporter, and a triple myc tag sequence fused to a full length Renilla reporter. All sequences, including an intron containing one positioned pre-eGFP (b-globin intron) were cloned in frame. The corresponding expression constructs were stably expressed in the isogenic HEK-R4 cell host (Invitrogen Incorp.) and selected by blasticidin resistance. The isogenic integration of the construct minimizes gene dose effects and improves assay reproducibility. Stably integrated single cell derived clones were selected and characterized for aminoglycoside mediated readthrough. […] Readthrough of Y122X accumulates an intracellular localized fusion protein approximately 65.5 kDa in size as controlled by western blot analysis and immunofluorescence using an anti-renilla antibody. The eGFP reporter pre-PTC mutation serves as visual control for genetic stability of the screening clones and minimizes protein degradation of small fusion protein amounts. In the assay, compound concentration was 10 μM. In miniaturized 1536 well format 2000 cells were dispensed in 4 μl/well and incubated for 24 h at 37° C., 5% CO2. 40 nl compounds were placed on the cells with control wells containing 1 ul Paramomycin and 14.4 mM final concentration. Compounds were incubated for 24 h. Renilla Glo substrate (2.5 ul) was added and plates were centrifuged and processed for luminescence measurement using various readers. Activity calculation was done using the equation: A1(%)=100*(S−NC)/(AC−NC) where AC, NC and S correspond to active controls (injection of Stimulation buffer=100% stimulation), neutral controls (buffer injection which Iloprost EC10) and screening samples (S). NC corresponds to 0% activity whereas AC is 100% activity (14 mM paromomycin). False positive artefacts were removed in confirmation and validation screening using the same assay format followed by counterscreening using the respective wildtype construct (w/o PTC mutation) cell model. Compounds were tested up to 100 μM compound concentration.

A word on the AC50: it is the concentration giving half of the maximal activity seen. Low values mean activity at low concentration, high ones activity only at high concentration.

As for `Cn1c2cc(C3CCC3)n(-c3ccccc3)c(=O)c2c(=O)c2ccsc21` [Example 1.29, 7-cyclobutyl-9-methyl-6-phenylthieno[2,3-b][1,6]naphthyridine-4,5(6H,9H)-dione], the AC50 was 700 nM and the Emax came to 286%.

Consider `O=c1c2c([nH]c3cc(C4CCC4)n(-c4ccccc4)c(=O)c13)CCCC2` [Example 1.30, 3-cyclobutyl-2-phenyl-6,7,8,9-tetrahydrobenzo[b][1,6]naphthyridine-1,10(2H,5H)-dione], for which the activity was half-maximal at 700 nM (AC50) and the Emax amounted to 324%.

In the case of `Cc1cc2c(=O)c3c(=O)n(-c4ccccc4)c(C4CCC4)cc3n(C)c2s1` [Example 1.31, 7-cyclobutyl-2,9-dimethyl-6-phenylthieno[2,3-b][1,6]naphthyridine-4,5(6H,9H)-dione], the AC50 came to 600 nM and the Emax is 228%.

In the case of `O=c1c2ccsc2[nH]c2cc(C3CCC3)n(-c3ccccc3)c(=O)c12` [Example 1.32, 7-cyclobutyl-6-phenylthieno[2,3-b][1,6]naphthyridine-4,5(6H,9H)-dione], the AC50 amounted to 4200 nM and the Emax turned out to be 247%.

With `Cc1cc2c(=O)c3c(=O)n(-c4ccccc4)c(C4CCC4)cc3[nH]c2s1` [Example 1.33, 7-cyclobutyl-2-methyl-6-phenylthieno[2,3-b][1,6]naphthyridine-4,5(6H,9H)-dione], the AC50 was 19400 nM and the Emax was determined as 243%.

For `Cn1c2ccsc2c(=O)c2c(=O)n(-c3ccccc3)c(C3CCC3)cc21` [Example 1.34, 6-cyclobutyl-4-methyl-7-phenylthieno[3,2-b][1,6]naphthyridine-8,9(4H,7H)-dione], the AC50 amounted to 1000 nM and the Emax came to 263%.

`O=c1c2sccc2[nH]c2cc(C3CCC3)n(-c3ccccc3)c(=O)c12` [Example 1.35, 6-cyclobutyl-7-phenylthieno[3,2-b][1,6]naphthyridine-8,9(4H,7H)-dione]: the AC50 turned out to be 400 nM and the Emax is 126%.

For `Cc1cc2c(s1)c(=O)c1c(=O)n(-c3ccccc3)c(C3CCC3)cc1n2C` [Example 1.36, 6-cyclobutyl-2,4-dimethyl-7-phenylthieno[3,2-b][1,6]naphthyridine-8,9(4H,7H)-dione], half-maximal activity (AC50) was put at 4100 nM and the Emax came to 177%.

`Cc1cc2[nH]c3cc(C4CCC4)n(-c4ccccc4)c(=O)c3c(=O)c2s1` [Example 1.37, 6-cyclobutyl-2-methyl-7-phenylthieno[3,2-b][1,6]naphthyridine-8,9(4H,7H)-dione]: the AC50 is 1400 nM and the Emax came out at 164%.

In the case of `Cc1ccc2c(c1)c(=O)c1c(=O)n(-c3ccccc3)c(C3CCC3)cc1n2C` [Example 1.38, 3-cyclobutyl-5,8-dimethyl-2-phenylbenzo[b][1,6]naphthyridine-1,10(2H,5H)-dione], half-maximal activity (AC50) was put at 2300 nM and the Emax was found to be 215%.

As for `Cn1c2ccc(F)cc2c(=O)c2c(=O)n(-c3ccccc3)c(C3CCC3)cc21` [Example 1.39, 3-cyclobutyl-8-fluoro-5-methyl-2-phenylbenzo[b][1,6]naphthyridine-1,10(2H,5H)-dione], half-maximal activity (AC50) was put at 1200 nM and the Emax is 239%.

In the case of `O=c1c2cc(Cl)ccc2[nH]c2cc(C3CCC3)n(-c3ccccc3)c(=O)c12` [Example 1.40, 8-chloro-3-cyclobutyl-2-phenylbenzo[b][1,6]naphthyridine-1,10(2H,5H)-dione], the AC50 stood at 1000 nM and the Emax is 300%.

Turning to `Cc1ccc2[nH]c3cc(C4CCC4)n(-c4ccccc4)c(=O)c3c(=O)c2c1` [Example 1.41, 3-cyclobutyl-8-methyl-2-phenylbenzo[b][1,6]naphthyridine-1,10(2H,5H)-dione], half-maximal activity (AC50) was put at 500 nM and the Emax worked out at 223%.

For the compound `Cn1c2ccc(Cl)cc2c(=O)c2c(=O)n(-c3ccccc3)c(C3CCC3)cc21` [Example 1.42, 8-chloro-3-cyclobutyl-5-methyl-2-phenylbenzo[b][1,6]naphthyridine-1,10(2H,5H)-dione], the AC50 was 3900 nM and the Emax amounted to 134%.

For `COc1cccc2c(=O)c3c(=O)n(-c4ccccc4)c(C(C)C)cc3n(C)c12` [Example 1.43, 3-isopropyl-6-methoxy-5-methyl-2-phenylbenzo[b][1,6]naphthyridine-1,10(2H,5H)-dione], half-maximal activity (AC50) was put at 22000 nM and the Emax was found to be 186%.

Turning to `O=c1c2cc(F)ccc2[nH]c2cc(C3CCC3)n(-c3ccccc3)c(=O)c12` [Example 1.44, 3-cyclobutyl-8-fluoro-2-phenylbenzo[b][1,6]naphthyridine-1,10(2H,5H)-dione], the AC50 came to 400 nM and the Emax was found to be 178%.

Take `O=c1c2cccc3c2n(c2cc(C4CCC4)n(-c4ccccc4)c(=O)c12)CC3` [Example 1.45, 9-cyclobutyl-8-phenyl-1H-indolo[1,7-ab][1,6]naphthyridine-6,7(2H,8H)-dione]: the half-maximal activity concentration (AC50) stood at 600 nM and the Emax stood at 252%.

Take `COc1cccc2c(=O)c3c(=O)n(-c4ccccc4)c(C4CCC4)cc3n(C)c12` [Example 1.46, 3-cyclobutyl-6-methoxy-5-methyl-2-phenylbenzo[b][1,6]naphthyridine-1,10(2H,5H)-dione]: the AC50 was found to be 3400 nM and the Emax worked out at 247%.

Regarding `COc1cccc2c(=O)c3c(=O)n(-c4ccccc4)c(C(C)C)cc3[nH]c12` [Example 1.47, 3-isopropyl-6-methoxy-2-phenylbenzo[b][1,6]naphthyridine-1,10(2H,5H)-dione], the half-maximal activity concentration (AC50) came out at 5200 nM and the Emax was 312%.

As to `COc1cccc2c(=O)c3c(=O)n(-c4ccccc4)c(C4CCC4)cc3[nH]c12` [Example 1.48, 3-cyclobutyl-6-methoxy-2-phenylbenzo[b][1,6]naphthyridine-1,10(2H,5H)-dione], the AC50 stood at 1800 nM and the Emax came out at 227%.

Consider `COc1ccc2c(c1)c(=O)c1c(=O)n(-c3ccccc3)c(C(C)C)cc1n2C` [Example 1.49], for which the Emax was determined as 17%.

Consider `COc1ccc2[nH]c3cc(C(C)C)n(-c4ccccc4)c(=O)c3c(=O)c2c1` [Example 1.50, 3-isopropyl-8-methoxy-2-phenylbenzo[b][1,6]naphthyridine-1,10(2H,5H)-dione], for which the activity was half-maximal at 16900 nM (AC50) and the Emax worked out at 110%.

On to `CC(C)c1cc2c(c(=O)c3cc(O)ccc3n2C)c(=O)n1-c1ccccc1` [Example 1.51, 8-hydroxy-3-isopropyl-5-methyl-2-phenylbenzo[b][1,6]naphthyridine-1,10(2H,5H)-dione], for which the AC50 amounted to 16500 nM and the Emax worked out at 144%.

Turning to `CC(C)c1cc2c(c(=O)c3cccc(O)c3n2C)c(=O)n1-c1ccccc1` [Example 1.52, 6-hydroxy-3-isopropyl-5-methyl-2-phenylbenzo[b][1,6]naphthyridine-1,10(2H,5H)-dione], the AC50 was found to be 21000 nM and the Emax stood at 49%.

As to `O=c1c2ccccc2[nH]c2cc(C3CCC3)n(C3CCCC3)c(=O)c12` [Example 2.1, 3-cyclobutyl-2-cyclopentylbenzo[b][1,6]naphthyridine-1,10(2H,5H)-dione], the AC50 worked out at 500 nM and the Emax stood at 229%.

For the compound `Cn1c2ccccc2c(=O)c2c(=O)n(C3CCCC3)c(C3CCC3)cc21` [Example 2.2, 3-cyclobutyl-2-cyclopentyl-5-methylbenzo[b][1,6]naphthyridine-1,10(2H,5H)-dione], the activity was half-maximal at 2100 nM (AC50) and the Emax was 262%.

On to `CC(C)c1cc2[nH]c3ccccc3c(=O)c2c(=O)n1C1CCCC1` [Example 2.3, 2-cyclopentyl-3-isopropylbenzo[b][1,6]naphthyridine-1,10(2H,5H)-dione], for which the AC50 came to 400 nM and the Emax was found to be 235%.

Consider `CC(C)c1cc2c(c(=O)c3ccccc3n2C)c(=O)n1C1CCCC1` [Example 2.4, 2-cyclopentyl-3-isopropyl-5-methylbenzo[b][1,6]naphthyridine-1,10(2H,5H)-dione], for which the AC50 is 1800 nM and the Emax worked out at 274%.
